# Results published in patent publication US10633348B2, “Methods to treat lymphoplasmacytic lymphoma” (Dana-Farber Cancer Institute, Inc., priority 2013, dated 2020).
# Tests used:
# Type in all cases: cell-based
# Mec1 = experiment: CellTiter-Glo cell viability assay; conditions: Homo sapiens, 72 hours
# OCI-Ly3 = experiment: CellTiter-Glo cell viability assay; conditions: Homo sapiens, OCI-Ly3, 72 h
# BRAF = test system: BRAF
# CAMKK2 = test system: CAMKK2
# MAP2K6 = test system: MAP2K6
# MAP3K2, MAP3K3 = experiment: KiNativ kinase profiling in A375 cells; conditions: Lys2, SEQ ID NO 87, 1.0 μM
# MAP3K3 = test system: MAP3K3
# MST2 = test system: MST2
# NDR1 = test system: NDR1
# NEK2 = test system: NEK2
# p70S6K = test system: p70S6K
# PEK = test system: PEK
# PITSLRE = experiment: KiNativ kinase profiling in A375 cells; conditions: Lys2, SEQ ID NO 152, 1.0 μM
# PLK1 = test system: PLK1
# [1] = test system: RSK1 domain1, RSK2 domain1, RSK3 domain1; experiment: KiNativ kinase profiling in A375 cells; conditions: Lys2, SEQ ID NO 165, 1.0 μM
# RSK1 domain2 = test system: RSK1 domain2
# RSK2 domain1 = test system: RSK2 domain1
# SNRK = test system: SNRK
# OCI-Ly7 = experiment: CellTiter-Glo cell viability assay; conditions: Homo sapiens, 72 hours
# TMD8 = experiment: CellTiter-Glo cell viability assay; conditions: Homo sapiens, 72 hours
# [2] = test system: WM patient primary lymphoplasmacytic cells (LPCs); experiment: Apoptosis analysis (Annexin V/Propidium iodide); conditions: for Apoptosis (%): 24 hours
# Protocol: WM cells were treated with and without the compounds described herein. Cells were incubated at 37° C. with 0.01˜4 uM of the compounds described herein. Apoptosis analysis was performed using Annexin V/Propidium iodide staining with the Apoptosis Detection Kit I (BD Pharmingen). 1×10^6/well cells were treated in 24 well plates for ˜24 hours with inhibitors or corresponding controls. A minimum of 10,000 events were acquired using a BD™ FACSCanto II flow cytometer and analyzed with BD FACS DIVA Software.
# Apoptosis analysis of WM patient primary lymphoplasmacytic cells (LPCs) was preformed following A-5 and A-14 treatment of Bone marrow mononuclear cells (BMMC) from WM patients for 24 hours. Apoptosis analysis was performed using Annexin V/Propidium iodide staining with the Apoptosis Detection Kit I (BD Pharmingen) in CD19-APC-cy7 antibody (BD Pharmingen) gated LPCs population.
smiles,measurement,setting,value
"CCN1CCN(Cc2ccc(NC(=O)c3ccc(C)c(Oc4cc(N)ncn4)c3)cc2C(F)(F)F)CC1 [(A-4), 3-((6-aminopyrimidin-4-yl)oxy)-N-(4-((4-ethylpiperazin-1-yl)methyl)-3-(trifluoromethyl)phenyl)-4-methylbenzamide]",EC50,Mec1,14.3 µM
same,EC50,OCI-Ly3,31.9 µM
same,inhibition of kinase labeling,BRAF,18.9%
same,inhibition of kinase labeling,CAMKK2,6.2%
same,inhibition of kinase labeling,MAP2K6,0.5%
same,inhibition of kinase labeling,"MAP3K2, MAP3K3",3.2%
same,inhibition of kinase labeling,MAP3K3,3.7%
same,inhibition of kinase labeling,MST2,−6.2%
same,inhibition of kinase labeling,NDR1,9.3%
same,inhibition of kinase labeling,NEK2,−22.7%
same,inhibition of kinase labeling,p70S6K,−2.3%
same,inhibition of kinase labeling,PEK,9.4%
same,inhibition of kinase labeling,PITSLRE,−10.4%
same,inhibition of kinase labeling,PLK1,−9.1%
same,inhibition of kinase labeling,[1],−17.7%
same,inhibition of kinase labeling,RSK1 domain2,−16.3%
same,inhibition of kinase labeling,RSK2 domain1,−3.3%
same,inhibition of kinase labeling,SNRK,18.0%
"CCN1CCN(Cc2ccc(NC(=O)c3ccc(C)c(Oc4ccnc(Nc5cnn(C)c5)n4)c3)cc2C(F)(F)F)CC1 [(A-14), N-(4-((4-ethylpiperazin-1-yl)methyl)-3-(trifluoromethyl)phenyl)-4-methyl-3-((2-((1-methyl-1H-pyrazol-4-yl)amino)pyrimidin-4-yl)oxy)benzamide]",EC50,OCI-Ly7,173 nM
same,EC50,TMD8,45 nM
same,Apoptosis (%),"[2]; Patient 5, 0.5 μM",39.24%
same,Apoptosis (%),"[2]; Patient 5, 1.0 μM",46.86%
same,Apoptosis (%),"[2]; Patient 6, 1.0 μM",20.88%
same,Apoptosis (%),"[2]; Patient 7, 0.5 μM",22.62%
same,Apoptosis (%),"[2]; Patient 7, 1.0 μM",31.51%
same,Apoptosis (%),"[2]; Patient 8, 0.5 μM",12.9%
same,Apoptosis (%),"[2]; Patient 8, 1.0 μM",31.58%
same,Apoptosis (%),"[2]; Patient 9, 0.2 μM",24.8%
same,Apoptosis (%),"[2]; Patient 9, 1.0 μM",43.7%
same,Apoptosis (%),"[2]; Patient 10, 0.2 μM",27.9%
same,Apoptosis (%),"[2]; Patient 10, 1.0 μM",52%
same,Apoptosis (%),"[2]; Patient 11, 0.2 μM",53.1%
same,Apoptosis (%),"[2]; Patient 11, 1.0 μM",71.8%
same,apoptosis compared with DMSO control,[2]; WM patient primary LPCs,induced significant apoptosis
